Data on 10 molecules can be found in ChEMBL document CHEMBL3352513, “Discovery of 3-Arylcoumarin-tetracyclic Tacrine Hybrids as Multifunctional Agents against Parkinson's Disease” (2014).

The target in experiment [1] is T1, Acetylcholinesterase 1 (Caenorhabditis elegans) (UniProt P38433).
T1 sequence (whole entry): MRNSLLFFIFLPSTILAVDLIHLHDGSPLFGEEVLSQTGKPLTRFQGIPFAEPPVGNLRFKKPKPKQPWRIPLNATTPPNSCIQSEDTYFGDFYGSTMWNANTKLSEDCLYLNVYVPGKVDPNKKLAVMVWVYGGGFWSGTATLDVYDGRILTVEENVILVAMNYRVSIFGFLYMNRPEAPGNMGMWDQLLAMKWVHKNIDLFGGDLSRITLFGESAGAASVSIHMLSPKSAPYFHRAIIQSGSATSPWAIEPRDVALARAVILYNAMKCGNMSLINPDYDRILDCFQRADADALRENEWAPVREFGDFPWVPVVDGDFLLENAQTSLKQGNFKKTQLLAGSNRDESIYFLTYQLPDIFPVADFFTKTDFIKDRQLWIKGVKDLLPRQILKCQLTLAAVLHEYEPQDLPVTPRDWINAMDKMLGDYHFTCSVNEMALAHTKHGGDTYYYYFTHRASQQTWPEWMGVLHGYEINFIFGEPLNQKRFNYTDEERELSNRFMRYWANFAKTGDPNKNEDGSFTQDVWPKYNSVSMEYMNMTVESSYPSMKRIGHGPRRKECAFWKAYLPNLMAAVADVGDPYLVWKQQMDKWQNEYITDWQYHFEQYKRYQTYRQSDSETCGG
Briefly: Inhibition of AChE in Caenorhabditis elegans assessed as increase in acetylcholine after 48 hrs by Amplex red assay.

Experiment [2] deals with Alpha-synuclein (Homo sapiens) (UniProt P37840). Briefly: Inhibition of YFP-tagged human alpha-synuclein aggregation expressed in transgenic Caenorhabditis elegans model NL5901 incubated for 48 hrs by fluorescent microscopy relative to untreated control.
The test system of experiment [3] is Caenorhabditis elegans. The experiment in a line: Increase in DAF16 nuclear localization in GFP expressing Caenorhabditis elegans TJ356 after 48 hrs by fluorescence microscopy. The class given is functional, organism-based.
Experiment [4] has as its system HEK293. The experiment in a line: Cytotoxicity against HEK293 cells assessed as inhibition of cell proliferation at 500 uM after 48 hrs by MTT assay. Format: functional. The conditions noted are these: Homo sapiens, HEK293, 48 h; read-out: GI. (In general: Tetrazolium assays rely on reduction of a dye to a coloured formazan, in cell work by metabolically active cells.)

Experiment [5] relates to HepG2. Briefly: Cytotoxicity against human HepG2 cells assessed as inhibition of cell proliferation at 500 uM after 48 hrs by MTT assay. Format: functional. The conditions noted are these: HepG2, 48 h, read-out: GI.
The subject of experiment [6] is HepG2. The experiment in a line: Cytotoxicity against human HepG2 cells assessed as inhibition of cell proliferation at 2 mM after 48 hrs by MTT assay. Format: functional. The conditions noted are these: HepG2, 48 h, read-out: GI.
Experiment [7] relates to Caenorhabditis elegans. The experiment in a line: […] content in Caenorhabditis elegans NL5901 assessed as reduction in response time after 48 hrs nonanol repulsion assay. The class given is functional.
Experiment [8] deals with Caenorhabditis elegans. Briefly: Antioxidant activity in Caenorhabditis elegans N2 assessed as reduction in ROS generation H2DCFDA dye based fluorescent assay. Format: functional.
In experiment [9] the test system is Caenorhabditis elegans. Briefly: […] content in Caenorhabditis elegans N2 assessed as reduction in response time after 48 hrs nonanol repulsion assay. Format: functional.
In experiment [10] the test system is HEK293. The experiment in a line: Cytotoxicity against HEK293 cells assessed as inhibition of cell proliferation at 2 mM after 48 hrs by MTT assay. Format: functional. The conditions noted are these: Homo sapiens, HEK293, 48 h; read-out: GI.

Calls of active or inactive are those of the source. No cut-off for these calls is given here.

As for `COc1ccc(-c2cc3cc(C4C5=C(CC(C)(C)CC5=O)Oc5nc6c(c(N)c54)CCCC6)cc(C(C)C)c3oc2=O)cc1` (racemic), the fold change (FC) in experiment [1] turned out to be 1.88.

For `CCC(C)c1cc(C2C3=C(CC(C)(C)CC3=O)Oc3nc4c(c(N)c32)CCCC4)cc2cc(-c3ccc(OC)cc3)c(=O)oc12` (racemic), the fold change (FC) worked out at 2 in [2] and 1.51 in experiment [1].

With `CCC(C)c1cc(C2C3=C(CCCC3=O)Oc3nc4c(c(N)c32)CCCC4)cc2cc(-c3cc(OC)c(OC)c(OC)c3)c(=O)oc12` (racemic), the result in the experiment with Caenorhabditis elegans [3] was inactive. The results for the inhibition of growth at 500 µM in the experiment with HEK293 [4] and in the experiment on HepG2 [5] were 6.5% and 8.66%, respectively. The inhibition of growth at 2000 µM was 16.5% in the experiment with HepG2 [6] and 56.9% with HEK293 [10]. Besides, the “fold change (FC)” value with Caenorhabditis elegans [7] is 1.9; in [2], 2.1; in [1], 1.15; in the experiment with Caenorhabditis elegans [8], 1.84; with Caenorhabditis elegans [9], 1.8.

Consider `COc1ccc(-c2cc3cc(C4C5=C(CC(C)(C)CC5=O)Oc5nc6c(c(N)c54)CCC6)cc(C(C)C)c3oc2=O)cc1OC` (racemic), for which, in experiment [2], the inhibition result was “inactive”. For the same molecule, the fold change (FC) in experiment [1] was 1.19.

With `CCC(C)c1cc(C2C3=C(CCCC3=O)Oc3nc4c(c(N)c32)CCC4)cc2cc(-c3cc(OC)c(OC)c(OC)c3)c(=O)oc12` (racemic), the values for the fold change (FC) in [2] and in experiment [1] were 1.76 and 1.14, respectively.

As for `COc1ccc(-c2cc3cc(C4C5=C(CC(C)(C)CC5=O)Oc5nc6c(c(N)c54)CCC6)cc(C(C)C)c3oc2=O)cc1` (racemic), the inhibition entry in [2] was “inactive”. In addition, the fold change (FC) in [1] was determined as 1.5; in the experiment with Caenorhabditis elegans [8], 2.16.

The molecule `CCC(C)c1cc(C2C3=C(CC(C)(C)CC3=O)Oc3nc4c(c(N)c32)CCCC4)cc2cc(-c3cc(OC)c(OC)c(OC)c3)c(=O)oc12` (racemic) displayed a fold change (FC) in [2] of 1.35. Besides, the inhibition result in experiment [1] was “inactive”.

For `COc1ccc(-c2cc3cc(C4C5=C(CC(C)(C)CC5=O)Oc5nc6c(c(N)c54)CCCC6)cc(C(C)C)c3oc2=O)cc1OC` (racemic), the inhibition entry in experiment [2] is “inactive”. The fold change (FC) in [1] is 1.16.

Consider `Nc1c2c(nc3ccccc13)CCCC2` [TACRINE], for which the inhibition of growth at 500 µM with HEK293 [4] is 72.3%; in the experiment on HepG2 [5] it was 83.4%. For the same molecule, the inhibition of growth at 2000 µM with HepG2 [6] was found to be 86.9%; in the experiment with HEK293 [10] it was 83%.

With `COc1cc(-c2cc3cc(C4C5=C(CCCC5=O)Oc5nc6c(c(N)c54)CCCC6)cc(C(C)C)c3oc2=O)cc(OC)c1OC` (racemic), in the experiment with Caenorhabditis elegans [3], the outcome was Active. In addition, the inhibition of growth at 500 µM in the experiment with HEK293 [4] was determined as 54%; in the experiment with HepG2 [5], 26.1%. The inhibition of growth at 2000 µM with HepG2 [6] came out at 27.8%; in the experiment on HEK293 [10], 73.8%. In addition, the “fold change (FC)” value was 1.75 in the experiment on Caenorhabditis elegans [7]; 2.6 in [2]; 1.2 in experiment [1]; 1.72 with Caenorhabditis elegans [8]; 2.6 in the experiment with Caenorhabditis elegans [9].
